# Activity calls are given as the source filed them. The calls are words filed in the database; no cut-off is given here.
# Columns and labels:
# [1] = Volume of distribution at steady state in Sprague-Dawley rat at 2 mg/kg, iv; type: ADME, organism-based; details: in vivo, read-out: Vdss
# [2] = Clearance in BALB/c mouse at 2 mg/kg, iv; type: ADME, organism-based; details: in vivo
# [3] = target: Tyrosine-protein kinase Fgr (Homo sapiens) (UniProt P09769); assay: Inhibition of wild-type human partial length FGR (L233 to T529 residues) expressed in bacterial expression system assessed as residual activity at 50 nM by Kinomescan method relative to control
# [4] = target: Serine/threonine-protein kinase STK11 (Homo sapiens) (UniProt Q15831); assay: Inhibition of wild-type human full length LKB1 (M1 to Q433 residues) expressed in bacterial expression system assessed as residual activity at 50 nM by Kinomescan method relative to control
# [5] = Protein binding in mouse plasma at 10 mg/kg, po; type: ADME, organism-based; details: read-out: PPB (converted)
# [6] = Clearance in Sprague-Dawley rat at 2 mg/kg, iv; type: ADME, organism-based; details: in vivo
# [7] = test system: Mitogen-activated protein kinase kinase kinase 12; assay: Inhibition of wild-type human full length DLK (M1 to P859 residues) expressed in mammalian expression system assessed as residual activity at 50 nM by Kinomescan method relative to control
# [8] = test system: Ribosomal protein S6 kinase alpha-2; assay: Inhibition of wild-type human partial length N-terminal RSK3 kinase domain 1 (M1 to Q385 residues) expressed in bacterial expression system assessed as residual activity at 50 nM by Kinomescan method relative to control
# [9] = Protein binding in rat plasma; type: ADME, cell-free; details: read-out: PPB (converted)
# [10] = target: Mitogen-activated protein kinase kinase kinase 1 (Homo sapiens) (UniProt Q13233); assay: Inhibition of wild-type human partial length MAP3K1 (L1202 to W1512 residues) expressed in mammalian expression system assessed as residual activity at 50 nM by Kinomescan method relative to control
# [11] = Cmax in BALB/c mouse at 10 mg/kg, po; type: ADME, organism-based; design: dose 10 mg/kg, route oral; details: in vivo
# [12] = test system: Rattus norvegicus; assay: Toxicity in rat assessed as mortality at 200 mg/kg; type: organism-based; details: in vivo
# [13] = species on record: Homo sapiens; assay: Inhibition of calcium channel (unknown origin) at 10 uM by patch clamp assay
# [14] = target: Serine/threonine-protein kinase DCLK2 (Homo sapiens) (UniProt Q8N568); assay: Inhibition of wild-type human partial length DCAMKL2 (K273 to V664 residues) expressed in bacterial expression system assessed as residual activity at 50 nM by Kinomescan method relative to control
# [15] = target: Calcium/calmodulin-dependent protein kinase type 1 (Homo sapiens) (UniProt Q14012); assay: Inhibition of wild-type human full length CAMK1A (M1 to L370 residues) expressed in bacterial expression system assessed as residual activity at 50 nM by Kinomescan method relative to control
# [16] = target: Casein kinase I isoform alpha (Homo sapiens) (UniProt P48729); assay: Inhibition of wild-type human partial length CK1A (M1 to L450 residues) expressed in mammalian expression system assessed as residual activity at 50 nM by Kinomescan method relative to control
# [17] = AUC in Sprague-Dawley rat at 10 mg/kg, po; type: ADME, organism-based; details: in vivo
# [18] = target: Serine/threonine-protein kinase PAK 6 (Homo sapiens) (UniProt Q9NQU5); assay: Inhibition of wild-type human partial length PAK6 (N298 to C681 residues) expressed in bacterial expression system assessed as residual activity at 50 nM by Kinomescan method relative to control
# [19] = species on record: Homo sapiens; assay: Inhibition of sodium channel (unknown origin) at 10 uM by patch clamp assay
# [20] = test system: Casein kinase I isoform alpha-like; assay: Inhibition of CK1A2 (unknown origin) assessed as residual activity at 50 nM by Kinomescan method relative to control; details: Homo sapiens
# [21] = AUC in BALB/c mouse at 10 mg/kg, po; type: ADME, organism-based; details: in vivo
# [22] = Tmax in BALB/c mouse at 10 mg/kg, po; type: ADME, organism-based; details: in vivo
# [23] = Half life in BALB/c mouse at 2 mg/kg, iv; type: ADME, organism-based; details: in vivo
# [24] = Half life in Sprague-Dawley rat at 2 mg/kg, iv; type: ADME, organism-based; details: in vivo
# [25] = Metabolic stability in mouse liver microsomes assessed as compound remaining after 10 mins; type: ADME, microsome; details: read-out: Stability
# [26] = test system: Rattus norvegicus; assay: Cardiotoxicity in rat assessed as decrease in mean arterial blood pressure at 200 mg/kg; type: toxicity, organism-based; details: in vivo
# [27] = Cmax in Sprague-Dawley rat at 10 mg/kg, po; type: ADME, organism-based; design: dose 10 mg/kg, route oral; details: in vivo
# [28] = Tmax in Sprague-Dawley rat at 10 mg/kg, po; type: ADME, organism-based; details: in vivo
# [29] = Volume of distribution at steady state in BALB/c mouse at 2 mg/kg, iv; type: ADME, organism-based; details: in vivo, read-out: Vdss
# [30] = test system: Oryctolagus cuniculus; assay: Cardiotoxicity in rabbit assessed as increase in heart rate at >3 mg/kg; type: toxicity, organism-based; details: in vivo
# [31] = Half life in human liver microsomes; type: ADME, microsome
# [32] = Half life in BALB/c mouse at 10 mg/kg, po; type: ADME, organism-based; details: in vivo
# [33] = Cmin in mouse at 10 mg/kg, po after 24 hrs; type: ADME, organism-based; details: in vivo, read-out: Cmin
# [34] = test system: Ribosomal protein S6 kinase alpha-2; assay: Inhibition of wild-type human partial length C-terminal RSK3 kinase domain 2 (V403 to K700 residues) expressed in bacterial expression system assessed as residual activity at 50 nM by Kinomescan method relative to control
# [35] = target: Ephrin type-B receptor 2 (Homo sapiens) (UniProt P29323); assay: Inhibition of wild-type human partial length EPHB2 (I597 to L902 residues) expressed in bacterial expression system assessed as residual activity at 50 nM by Kinomescan method relative to control
# [36] = target: Serine/threonine-protein kinase NIM1 (Homo sapiens) (UniProt Q8IY84); assay: Inhibition of wild-type human partial length NIM1 (Q44 to N355 residues) expressed in mammalian expression system assessed as residual activity at 50 nM by Kinomescan method relative to control
# [37] = Permeability from apical side to basolateral side in human Caco2 cells; type: ADME, cell-based; details: Caco-2, read-out: permeability
# [38] = Clearance of compound in mouse; type: ADME, organism-based; details: in vivo
# [39] = species on record: Mus musculus; assay: animal or person; details: Balb/c, 24 h
# [40] = Protein binding in human serum; type: ADME, cell-free; details: read-out: PB (converted)
# [41] = test system: Mus musculus; assay: Antiarthritic activity in collagen-induced arthritis mouse model assessed as reduction in inflammation at 10 mg/kg, po qd measured up to 41 days; type: functional, organism-based
# [42] = Oral bioavailability in mouse; type: ADME, organism-based; details: in vivo
# [43] = Drug concentration in mouse at 2 mg/kg, po qd after 24 hrs; type: ADME, organism-based; details: in vivo, read-out: Drug uptake
# [44] = test system: Phosphatidylinositol 4,5-bisphosphate 3-kinase catalytic subunit alpha isoform (Homo sapiens), P42336 [H1047L]; assay: Inhibition of human partial length PIK3CA H1047L mutant (R108 to N1068 residues) expressed in mammalian expression system assessed as residual activity at 50 nM by Kinomescan method relative to control
# Serine/threonine-protein kinase NIM1 (Homo sapiens), sequence (Q8IY84 whole entry, the tested form may be a part): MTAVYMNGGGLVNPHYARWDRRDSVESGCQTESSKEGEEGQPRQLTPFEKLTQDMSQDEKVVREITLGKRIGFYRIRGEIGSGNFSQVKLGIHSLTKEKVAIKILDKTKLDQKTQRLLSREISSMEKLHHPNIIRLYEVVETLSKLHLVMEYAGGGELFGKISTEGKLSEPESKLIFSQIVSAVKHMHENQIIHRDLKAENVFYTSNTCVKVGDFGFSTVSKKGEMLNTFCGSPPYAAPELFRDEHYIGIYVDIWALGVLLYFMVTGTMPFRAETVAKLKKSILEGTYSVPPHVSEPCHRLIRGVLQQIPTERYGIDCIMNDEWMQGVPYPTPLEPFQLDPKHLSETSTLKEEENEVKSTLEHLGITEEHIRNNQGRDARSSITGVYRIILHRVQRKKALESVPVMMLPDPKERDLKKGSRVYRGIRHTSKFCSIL
# Serine/threonine-protein kinase STK11 (Homo sapiens), sequence (Q15831 whole entry, the tested form may be a part): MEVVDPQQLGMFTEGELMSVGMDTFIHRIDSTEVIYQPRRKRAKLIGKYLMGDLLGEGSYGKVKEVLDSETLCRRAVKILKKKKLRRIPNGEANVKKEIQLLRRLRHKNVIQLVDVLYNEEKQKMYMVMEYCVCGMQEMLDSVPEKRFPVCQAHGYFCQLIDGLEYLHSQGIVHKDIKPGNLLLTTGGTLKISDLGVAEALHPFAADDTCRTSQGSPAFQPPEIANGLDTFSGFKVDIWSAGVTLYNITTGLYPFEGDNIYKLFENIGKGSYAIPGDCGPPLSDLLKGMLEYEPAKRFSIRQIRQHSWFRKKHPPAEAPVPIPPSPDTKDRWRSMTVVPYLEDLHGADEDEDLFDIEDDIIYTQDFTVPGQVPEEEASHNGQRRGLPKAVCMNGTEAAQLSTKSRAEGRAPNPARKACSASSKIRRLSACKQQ
# Tyrosine-protein kinase Fgr (Homo sapiens), sequence (P09769 2-529 limits assumed): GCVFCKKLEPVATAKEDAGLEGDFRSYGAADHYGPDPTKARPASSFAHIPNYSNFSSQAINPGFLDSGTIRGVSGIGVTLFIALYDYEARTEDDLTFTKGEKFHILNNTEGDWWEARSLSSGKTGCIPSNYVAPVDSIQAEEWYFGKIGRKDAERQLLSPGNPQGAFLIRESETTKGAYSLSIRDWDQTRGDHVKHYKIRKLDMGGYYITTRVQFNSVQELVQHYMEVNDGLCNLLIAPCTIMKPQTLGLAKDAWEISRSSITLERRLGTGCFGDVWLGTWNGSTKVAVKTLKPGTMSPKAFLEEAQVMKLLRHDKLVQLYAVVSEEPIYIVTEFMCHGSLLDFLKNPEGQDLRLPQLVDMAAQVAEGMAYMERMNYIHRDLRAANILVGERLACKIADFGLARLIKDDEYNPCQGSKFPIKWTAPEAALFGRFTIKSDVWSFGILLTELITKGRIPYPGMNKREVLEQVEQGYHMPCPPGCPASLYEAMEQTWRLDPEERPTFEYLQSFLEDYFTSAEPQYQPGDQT
# Serine/threonine-protein kinase DCLK2 (Homo sapiens), sequence (Q8N568 whole entry, the tested form may be a part): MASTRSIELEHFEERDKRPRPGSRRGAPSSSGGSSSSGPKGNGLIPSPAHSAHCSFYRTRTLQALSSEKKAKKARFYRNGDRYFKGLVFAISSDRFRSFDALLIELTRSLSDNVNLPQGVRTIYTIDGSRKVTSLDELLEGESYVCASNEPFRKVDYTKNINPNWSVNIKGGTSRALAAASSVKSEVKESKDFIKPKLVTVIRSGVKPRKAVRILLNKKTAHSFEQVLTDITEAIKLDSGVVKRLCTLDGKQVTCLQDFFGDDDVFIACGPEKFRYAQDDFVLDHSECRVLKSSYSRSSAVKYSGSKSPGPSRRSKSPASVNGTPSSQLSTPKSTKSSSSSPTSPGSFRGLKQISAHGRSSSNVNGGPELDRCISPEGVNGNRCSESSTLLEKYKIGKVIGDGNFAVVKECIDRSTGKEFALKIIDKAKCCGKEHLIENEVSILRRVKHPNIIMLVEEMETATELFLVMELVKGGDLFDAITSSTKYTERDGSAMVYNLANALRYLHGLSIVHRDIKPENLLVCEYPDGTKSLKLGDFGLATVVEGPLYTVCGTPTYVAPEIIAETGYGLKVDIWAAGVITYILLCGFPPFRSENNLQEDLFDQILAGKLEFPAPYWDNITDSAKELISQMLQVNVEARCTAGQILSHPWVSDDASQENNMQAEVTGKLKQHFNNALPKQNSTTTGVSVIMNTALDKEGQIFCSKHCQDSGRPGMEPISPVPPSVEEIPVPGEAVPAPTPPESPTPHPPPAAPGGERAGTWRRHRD
# Mitogen-activated protein kinase kinase kinase 1 (Homo sapiens), sequence (Q13233 whole entry, the tested form may be a part): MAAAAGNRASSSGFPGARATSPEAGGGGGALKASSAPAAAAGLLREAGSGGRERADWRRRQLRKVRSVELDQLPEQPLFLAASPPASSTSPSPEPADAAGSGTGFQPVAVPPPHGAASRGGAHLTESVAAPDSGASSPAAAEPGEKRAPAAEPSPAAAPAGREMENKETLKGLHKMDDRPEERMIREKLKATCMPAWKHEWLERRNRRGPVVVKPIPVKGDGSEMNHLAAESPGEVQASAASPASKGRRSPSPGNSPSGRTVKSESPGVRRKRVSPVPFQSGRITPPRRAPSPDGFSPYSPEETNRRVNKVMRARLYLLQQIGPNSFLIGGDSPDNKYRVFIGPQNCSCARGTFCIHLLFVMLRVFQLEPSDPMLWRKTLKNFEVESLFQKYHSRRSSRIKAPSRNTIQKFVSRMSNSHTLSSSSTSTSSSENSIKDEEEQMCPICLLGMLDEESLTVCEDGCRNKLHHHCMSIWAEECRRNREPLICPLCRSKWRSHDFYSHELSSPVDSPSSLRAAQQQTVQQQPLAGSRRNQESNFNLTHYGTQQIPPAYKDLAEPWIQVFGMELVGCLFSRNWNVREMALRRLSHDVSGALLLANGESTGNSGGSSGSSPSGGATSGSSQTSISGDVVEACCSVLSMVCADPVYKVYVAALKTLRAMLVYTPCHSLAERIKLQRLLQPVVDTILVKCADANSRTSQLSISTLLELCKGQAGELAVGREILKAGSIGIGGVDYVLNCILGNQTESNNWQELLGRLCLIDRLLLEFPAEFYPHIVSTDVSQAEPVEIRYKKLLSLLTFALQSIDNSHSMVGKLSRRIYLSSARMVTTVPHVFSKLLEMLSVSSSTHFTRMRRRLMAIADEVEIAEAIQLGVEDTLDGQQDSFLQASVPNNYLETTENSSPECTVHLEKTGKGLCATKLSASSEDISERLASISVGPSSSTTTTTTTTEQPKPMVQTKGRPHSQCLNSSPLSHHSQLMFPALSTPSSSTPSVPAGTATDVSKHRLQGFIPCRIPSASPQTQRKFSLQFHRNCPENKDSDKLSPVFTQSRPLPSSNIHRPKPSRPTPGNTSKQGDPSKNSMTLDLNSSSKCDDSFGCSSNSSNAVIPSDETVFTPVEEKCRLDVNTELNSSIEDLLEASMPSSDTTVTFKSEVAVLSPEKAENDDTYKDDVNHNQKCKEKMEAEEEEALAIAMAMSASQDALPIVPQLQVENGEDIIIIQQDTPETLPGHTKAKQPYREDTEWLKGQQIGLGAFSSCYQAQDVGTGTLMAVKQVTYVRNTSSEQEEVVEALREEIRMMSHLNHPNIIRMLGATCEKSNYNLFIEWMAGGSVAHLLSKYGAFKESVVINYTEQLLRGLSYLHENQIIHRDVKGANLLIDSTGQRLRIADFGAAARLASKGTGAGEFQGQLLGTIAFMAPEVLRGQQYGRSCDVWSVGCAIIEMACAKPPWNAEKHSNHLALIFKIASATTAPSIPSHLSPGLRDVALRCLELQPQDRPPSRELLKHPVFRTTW
# Ephrin type-B receptor 2 (Homo sapiens), sequence (P29323 whole entry, the tested form may be a part): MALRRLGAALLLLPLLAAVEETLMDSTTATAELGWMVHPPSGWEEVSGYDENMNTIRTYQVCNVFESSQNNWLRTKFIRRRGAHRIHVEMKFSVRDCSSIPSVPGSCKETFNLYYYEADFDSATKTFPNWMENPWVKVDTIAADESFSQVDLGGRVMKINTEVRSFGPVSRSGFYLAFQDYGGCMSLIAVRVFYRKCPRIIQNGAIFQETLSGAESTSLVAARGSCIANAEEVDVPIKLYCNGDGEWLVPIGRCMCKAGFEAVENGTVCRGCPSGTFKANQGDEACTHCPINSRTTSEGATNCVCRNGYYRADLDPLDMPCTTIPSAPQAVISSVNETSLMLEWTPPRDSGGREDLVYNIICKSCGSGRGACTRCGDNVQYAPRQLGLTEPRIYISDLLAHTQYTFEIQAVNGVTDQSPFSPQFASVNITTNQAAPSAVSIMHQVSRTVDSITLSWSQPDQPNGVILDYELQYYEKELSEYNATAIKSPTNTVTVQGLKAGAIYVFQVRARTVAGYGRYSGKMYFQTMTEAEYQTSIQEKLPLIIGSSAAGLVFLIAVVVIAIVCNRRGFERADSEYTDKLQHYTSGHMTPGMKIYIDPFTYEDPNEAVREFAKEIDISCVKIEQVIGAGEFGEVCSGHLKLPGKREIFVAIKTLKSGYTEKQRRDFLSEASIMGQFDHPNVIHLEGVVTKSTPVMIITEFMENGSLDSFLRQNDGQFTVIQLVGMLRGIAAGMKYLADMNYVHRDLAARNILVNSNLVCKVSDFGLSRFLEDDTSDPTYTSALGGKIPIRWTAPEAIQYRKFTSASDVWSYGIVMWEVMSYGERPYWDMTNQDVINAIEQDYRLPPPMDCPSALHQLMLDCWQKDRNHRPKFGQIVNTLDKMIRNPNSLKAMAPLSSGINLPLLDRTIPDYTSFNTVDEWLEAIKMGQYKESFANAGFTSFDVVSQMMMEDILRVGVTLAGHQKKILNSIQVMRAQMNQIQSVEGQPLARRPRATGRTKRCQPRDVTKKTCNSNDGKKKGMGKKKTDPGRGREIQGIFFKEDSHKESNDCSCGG
# Casein kinase I isoform alpha (Homo sapiens), sequence (P48729 2-337 limits assumed): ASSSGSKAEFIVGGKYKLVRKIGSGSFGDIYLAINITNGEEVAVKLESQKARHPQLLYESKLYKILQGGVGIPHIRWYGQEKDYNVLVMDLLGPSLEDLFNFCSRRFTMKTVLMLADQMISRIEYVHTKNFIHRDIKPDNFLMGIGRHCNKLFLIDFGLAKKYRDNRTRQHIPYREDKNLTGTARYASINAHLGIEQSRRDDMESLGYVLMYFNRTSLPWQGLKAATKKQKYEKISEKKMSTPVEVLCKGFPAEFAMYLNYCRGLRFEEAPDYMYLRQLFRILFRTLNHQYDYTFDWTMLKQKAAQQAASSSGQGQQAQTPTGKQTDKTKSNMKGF
compound,measurement,setting,value
COc1ccc(-c2cc3c(N[C@@H]4CC[C@](C)(N)C4(C)C)c(C(N)=O)cnn3c2)cn1,Vd,[1],11.5 L/kg
same,clearance,[2],1 L/h/kg
same,Activity,[3],99%
same,Activity,[4],100%
same,fraction unbound,[5],0.07
same,clearance,[6],0.846 L/h/kg
same,Activity,[7],81%
same,Activity,[8],87%
same,fraction unbound,[9],0.12
same,Activity,[10],98%
same,Cmax,[11],1.1 µM
same,Activity,[12],Toxic
same,inhibition,[13],16%
same,Activity,[14],100%
same,Activity,[15],100%
same,Activity,[16],84%
same,AUC,[17],12.9 µM·h
same,Activity,[18],87%
same,inhibition,[19],71%
same,Activity,[20],97%
same,AUC,[21],17.9 µM·h
same,Tmax,[22],4 h
same,half-life,[23],6.5 h
same,half-life,[24],9.8 h
same,remaining at 10 min,[25],95%
same,Activity,[26],Toxic
same,Cmax,[27],0.6 µM
same,Tmax,[28],7.3 h
same,Vd,[29],8.2 L/kg
same,Activity,[30],Toxic
same,half-life,[31],> 1.5 h
same,half-life,[32],10.2 h
same,concentration at 24 h,[33],0.3 µM
same,Activity,[34],93%
same,Activity,[35],100%
same,Activity,[36],90%
same,Papp A→B,[37],26 nm/s
CC1(C)[C@H](Nc2c(C(N)=O)cnn3cc(-c4ccccc4)cc23)CC[C@]1(C)N,clearance,[38],1.74 L/h/kg
same,IC50,[39],0.27 µM
same,fraction unbound,[40],0.52
same,Activity,[41],Active
same,bioavailability,[42],67%
same,concentration at 24 h,[43],0.06 µM
same,Activity,[44],95%

# — ChEMBL document CHEMBL4052645, “Discovery of potent and efficacious pyrrolopyridazines as dual JAK1/3 inhibitors” (Bioorg Med Chem Lett, 2017)
